Experimental data from publication PMC11061149, “Protein mimetic 2D FAST rescues alpha synuclein aggregation mediated early and post disease Parkinson’s phenotypes” (Nature Communications, 2024).
“And” between values parts separate entries of the source, which are not always exact repeats. Equal entries are not always repeated.

Assays:
[1] = Parallel artificial membrane permeability assay (PAMPA); type: in vitro ADME
Method: The permeability of various ligands was assessed with a PAMPA kit (BioAssay Systems, Hayward, CA) according to a previously described protocol. Briefly, 4% lecithin solution (LS) was prepared in dodecane and 5 µL was applied to the donor plate membrane. Then, 300 μL PBS was added to the acceptor plate. Subsequently, 200 µL of ligand solutions (500 μM) and various permeability standards (high, medium, and low, 500 μM) were added to the donor plate membrane. The donor plate was placed in the acceptor plate and incubated at r.t. for 18 h. The solutions were then moved from the acceptor plate into a clear-bottom 96-well plate (Corning Inc., Corning, NY) and absorbance was recorded at 360 nm for various ligands and 275 nm for permeability standards. The permeability was calculated using Eq. (1) below, where the permeability rate, C, equals 7.72 × 10^–6, ODA is the absorbance of the acceptor solution, and ODE is the absorbance of the equilibrium standard.1 Pe=C×−ln1−ODA/ODEcm/s

UA196 worms = assay: ROS level in post-disease onset PD model of UA196 worms; type: in vivo, C. elegans
Method: The UA196 worms were bleached, and the eggs were incubated on PLATE 1. On day two, the UA196 worms were transferred (using M9 buffer) on PLATE 2 (without ligand). On day five, 100 UA196 worms were used to determine the ROS level (as described earlier) prior to the treatment with ligands on day five. In tandem, ~200 worms were transferred to PLATE 3 (with ligand) using M9 buffer (10-20 µL) and the plate was incubated at 20 °C in the incubator. On day 8, 100 UA196 worms from PLATE 2 (without ligand) and PLATE 3 (with ligand) were used to determine the ROS level (as described earlier). For each condition, three biological replicates were performed, and 3 technical replicates were used for each biological replicate. […] (n = 3 independent experiments and each n consisted of 3 technical replicates).

[2] = system: HEK cells stably expressing αS-A53T-YFP; assay: HEK cells treated with 5th cycle PMCA samples (ProteoStat, confocal); type: cell-based, human
Method: To further validate that NS132 generates fiber incompetent structures from the fibers-catalyzed aggregation, we utilized HEK cells that stably express αS-A53T-YFP[24],[51]–[54]. The solutions of αS aggregation in the absence and presence of NS132 from the 5th cycle of PMCA (2 μM in monomeric αS, ±NS132) were introduced to the HEK cells in the presence of Lipofectamine 3000 for 24 h. In contrast to the control (no fibers) (Fig. 3i, control), we observed a significant number of inclusions of αS-A53T-YFP protein in the presence of αS fibers (Fig. 3i, αS, white arrows). […] In contrast, in the presence of the PMCA assay sample from the 5th cycle ( + NS132), there was a significant reduction in the number of αS-A53T-YFP inclusions (Fig. 3i, +NS132). The ProteoStat intensity of inclusions in HEK cells treated with the PMCA sample from cycle five was ~2–3 fold higher than the control condition (no fibers) (Fig. 3j, black). […]
This assay was performed based on a previous protocol with slight modifications. […] The resulting cell pellets were then homogenized, transferred into an autoclaved 1.7 mL microcentrifuge tube, and counted to normalize the data. […] The cell solution was homogenized and equally aliquoted into the desired number of wells in a Costar 96-well flat black plate and fluorescence was measured (λex = 550 nm, λem = 600 nm) on an Infinite M200 Pro Plate Reader. […]

Compound: Cc1ccc(NC(=O)c2ccc(NC(=O)c3ccc([N+](=O)[O-])c(NCCc4c[nH]c5ccccc45)n3)c(NCC3CCCCC3)n2)c(OCC(=O)O)n1 [NS132]
- cell permeability (PAMPA), comparison in words [1]: lower in comparison to the PAMPA medium standard
- PAMPA permeability (Pe), individual trials ([1]; 500 μM in donor, 18 h, r.t., unit from Eq. 1): 2.69 ×10⁻⁶ cm/s and 2.41 ×10⁻⁶ cm/s and 2.71 ×10⁻⁶ cm/s and 2.89 ×10⁻⁶ cm/s
- Papp at 18 h, 500 μM ([1]; PAMPA, 500 μM in donor, 18 h, r.t., unit from Eq. 1, read-out: PAMPA permeability (Pe), individual trials): 2.92 ×10⁻⁶ cm/s
- ROS level in UA196 worms, post-disease model, in words (UA196 worms; 50 μM ligand on day five, ROS on day eight): very effective in decreasing the ROS level
- ROS level (dye fluorescence), Average (UA196 worms; UA196+NS132, Day 5 (same value as UA196 control)): 1262.3
- ROS level (dye fluorescence), Average (UA196 worms; UA196+NS132, Day 8): 733.721
- ProteoStat dye intensity (raw), individual experiments ([2]; HEK cells + fifth cycle PMCA sample (2 μM αS in monomer) with NS132): 1001 and 1176 and 997 and 1009 and 1031 and 978 and 1091 and 1123 and 1010 and 1092 and 1179
- ProteoStat intensity of inclusions, in words ([2]; PMCA sample from cycle five in the presence of NS132): significantly lower
